Reference: patent US12569470B2, “Vasodilator and use thereof” (Bioradical Research Institute Corp., priority 2019, dated 2026)

Assays:
[1] = Storage stability in pH7.4-PBS or pure water at 37° C., residual rate by HPLC; assay type: physicochemical; conditions: for Residual rate (%) After 1 week / Residual rate (%) After 2 weeks: 200 μmol/1, 37° C., protected from light; for Residual rate (%) Initial concentration: 200 μmol/1, initial concentration (100%) being a reference
Method: The storage stability of edaravone, EMPO, ED2AP, and BisEp-C3 of the following formula (A) were examined. Specifically, edaravone, EMPO, ED2AP, and BisEp-C3 were dissolved in pH7.4-PBS or pure water so as to have a final concentration of 200 μmol/1 to prepare dissolved solutions of these compounds. When the compounds were difficult to be dissolved, they were dissolved in an ultrasonic cleaner with warm water at 40° C.
Under the measurement conditions for High-Performance Liquid Chromatography (HPLC) described below, the initial concentration was quantified, and then each solution was stored in an oven, which was protected from light, at 37° C., and quantified under the same measurement conditions after 1 week and 2 weeks, to determine residual rate (%) with the initial concentration (100%) being a reference.
Measurement Conditions for HPLC
High-Performance Liquid Chromatography (Shimadzu Corporation)
Data-processing software (Model: LCsolution Ver. 1.0, produced by Shimadzu Corporation)
Pump (Model: LC-20AD; produced by Shimadzu Corporation)
Column oven (Model: CTO-20A; produced by Shimadzu Corporation)
Autosampler (Model: SIL-20A; produced by Shimadzu Corporation)
PDA detector (Format: SPD-M20A)
Column: Atlantis dC18 5 μm (250×4.6 mm I.D.; produced by Waters)
Column temperature: 45° C.
Detection method: UV (254 nm)
Eluate A: pH3 buffer solution (adjusted to pH3 by adding phosphoric acid to 0.05M KH2PO4 aqueous solution)/methanol=90/10

rat neuroid cells B50 [2] = assay: Toxicity evaluation, cell viability by Alamar Blue; assay type: cell-based; conditions: 12.5, 25, 50, 100, or 200 μmol/1, 24 hours, FIG. 5
Method: Rat neuroid cells B50 were seeded in 12-well plates and then cultured. Edaravone (RC), ED2AP, or BisEp-C3 was added to each well so as to achieve a predetermined concentration (12.5, 25, 50, 100, or 200 μmol/1), and then incubated for 24 hours at 37° C. and 5% CO2. Cell viability in each well after the culture was measured using Alamar Blue.

rat neuroid cells B50 [3] = assay: Toxicity evaluation on byproducts after reaction with singlet oxygen; assay type: cell-based; conditions: byproducts after reaction with singlet oxygen, 50, 100, or 200 μmol/1, FIG. 6
Method: In a cell-free system, the RB was added to media (5% FCS-containing RPMI-1640 media) containing edaravone, ED2AP, and BisEp-C3 having a predetermined concentration (50, 100, or 200 μmol/1) and then irradiated with LED (G-LED) at 525 nm to generate singlet oxygen, whereby reacting each compound with singlet oxygen. The cell viability was measured in the same manner as in Example 7(1), except that the culture solution after the reaction was used as a medium of the neuroid cell B50. As a negative control (NC), the cell viability was measured in the same manner except that each compound and […] were not added in the cell-free system. Further, as a control (RB), the cell viability was measured in the same manner except that each compound was not added and only […] was added in the cell-free system.

[4] = tested on: superoxide produced by the neutrophils; assay: Superoxide-eliminating ability of PBS solutions before and after storage for 10 days; assay type: cell-based, human; conditions: PBS solution stored for 10 days versus immediately after preparation, 0-200 μmol/1, FIG. 4
Method: First, ED2AP, BisEp-C3, edaravone, BisEp-C1, or BisEp-C1 (H2) was added to a neutrophil of 4×10^5 cells per sample so as to achieve a predetermined concentration (0, 12.5, 25, 50, 100, or 200 μmol/1, or 0, 125, 250, 500, 1,250, 2,500 or 5,000 μmol/1) with […] of CLA, and then the cell suspension was seeded in flat-bottomed 96-well plates. The volume of the suspension was 200 μl/well, and phenol red-free Ca+, Mg+ HBSS was used as the solution. In addition, the neutrophil was stimulated by adding PMA so as to achieve a concentration of 100 ng/ml. After the stimulation, a plate reader (Envision 2104 Multilabel Reader produced by Perkin Elmer Co., Ltd.) was used to measure the chemiluminescence value over time for 30 minutes with the PMA stimulation time being a reference. The measurement interval was 30 seconds. […] In addition, as a control, the superoxide production amount was measured in the same manner except that each compound was not added. The relative value of the superoxide production amount when each compound was added was calculated with the superoxide production amount of the control being 100.
PBS solutions of ED2AP, BisEp-C3, and edaravone were prepared in the same manner as in Example 2 and stored for 10 days. […] Then, the relative value of the superoxide production amount of each sample was calculated with the superoxide production amount of the sample of 0 μmol/1 being 100.

Row | Residual rate (%) After 1 week ([1]; Pure water) | Residual rate (%) After 2 weeks ([1]; Pure water) | Residual rate (%) Initial concentration ([1]; Pure water) | Residual rate (%) After 1 week ([1]; pH 7.4-PBS) | Residual rate (%) After 2 weeks ([1]; pH 7.4-PBS) | Residual rate (%) Initial concentration ([1]; pH 7.4-PBS) | Structure (SMILES) | cell viability (cytotoxicity) (rat neuroid cells B50 [2]) | cell viability (cytotoxicity of byproducts) (rat neuroid cells B50 [3]) | superoxide-eliminating ability after storage [4]
1 | 99.4% | 88.5% | 100% | 98.7% | 93.6% | 100% | CCN1N=C(C)/C(=C\C=C\c2c(C)nn(CC)c2O)C1=O [BisEp-C3, 2,4-dihydro-4-[3-(1-ethyl-5-hydroxy-3-methyl-1H-pyrazol-4-yl)-2-propen-1-ylidene]-2-ethyl-5-methyl-3H-pyrazol-3-one] | not cytotoxic at any concentration | not cytotoxic at any concentration | maintained the superoxide-eliminating ability equivalent to that immediately after preparation
2 | 96.1% | 89.8% | 100% | 96.2% | 91.3% | 100% | CC1=NN(c2ccccc2)C(=O)/C1=C/C=C/c1c(C)nn(-c2ccccc2)c1O [ED2AP, 2,4-dihydro-4-[3-(5-hydroxy-3-methyl-1-phenyl-1H-pyrazol-4-yl)-2-propen-1-ylidene]-5-methyl-2-phenyl-3H-pyrazol-3-one] | not cytotoxic at any concentration | not cytotoxic at any concentration | maintained the superoxide-eliminating ability equivalent to that immediately after preparation
